Results on 7 compounds are retold here after article PMC6308159 (Frontiers in Public Health, 2018).

The test system of data set [1] is primary human endothelial colony-forming cells (ECFCs), cord blood clones.
For data set [2] the test system is unchanged. The data set can be described thus: cells. The following applies: read-out: IC50, range between individual ECFC clones.
The conditions of data set [3]: cited from earlier work.
The next data set in a line: in vitro. To be noted: human.
In data set [4] the test system is polyclonal ECFC line CB002. In kind it is cell-based, human. To be noted: 0.390625 μM; 48 h.
[5] abbreviates: read-out: IC50, range between individual ECFC clones.

SMILES strings stand for the structures. Several values for one entry are separate records, joined by “and”; a condition that tells them apart may be missing. Identical values can stand only once. Like-named read-outs stand apart in the source and are kept apart here.

On to `O.[Cl][Cd][Cl]` [CdCl2, Cadmium Chloride Hydrate], for which, in data set [1], the “IC10, range between individual ECFC clones” value was in the range of 4.2 to 9.3 µM; the “average IC10 (mean and standard deviation)” value stood at 6.7 ± 1.85 µM; the cells killed is ~100%; the cytotoxicity entry was “not cytotoxic”. For the same compound, the IC50 (usually the point on the concentration scale where inhibition reaches its midpoint) in data set [1] (setting [5]) was in the range of 12.3 to 18 µM.
Take `CC1=CC(=O)c2ccccc2C1=O` [Menadione, 2-methyl-1,4-naphthoquinone, reference compound]: in data set [1], the “IC10, range between individual ECFC clones” value lay within 5.6 to 19.0 µM; the “average IC10 (mean and standard deviation)” value was 11.5 ± 5.03 µM; the cells killed is recorded as 100%; the live cells is listed as < 50%. Further, in data set [2], the IC50 was 8 to 26.3 µM. Also, the blood level in data set [3] (observed in a clinical setting) was 500 to 2000 nM. Besides, the “level found in the blood” value in data set [3] (volunteers after ingestion of 10 mg menadione sodium bisulfite tablets) is listed as 20 nM. Moreover, in “in vitro”, the viability – broadly, a per cent measure of how many cells are alive, often set against a control – at 10 µM amounted to 100%.
`O.O.O.O.O.O.O.O=[As]([O-])([O-])O.[Na+].[Na+]` [Na2HAsO4, Sodium arsenate dibasic heptahydrate]: in data set [1], the cells killed was determined as 0% and the “effect on ECFC viability / toxicity” value was “no effect”.
Take `O=[As][O-].[Na+]` [NaAsO2, Sodium (meta)arsenite]: the “raw CFDA fluorescence per well” value in data set [4] is 4689 and 4248 and 2550 and 2844 and 2369 and 3435. For the same compound, in data set [1], the “IC10, range between individual ECFC clones” value was 1.1 to 5.0 µM; the “average IC10 (mean and standard deviation)” value is 2.4 ± 1.16 µM; the cells killed came to 100%. Besides, the IC50 in data set [1] (read-out: IC50 ± SD) was determined as 7.5 ± 4.7 µM.
For `CC1=C(C/C=C(\C)CCC[C@H](C)CCC[C@H](C)CCCC(C)C)C(=O)c2ccccc2C1=O` [Phytonadione, phytonadione, reference compound], in data set [1], the “effect on ECFC viability / toxicity” value is on record as “not toxic”.
With `CCC[CH2][Sn]([Cl])([CH2]CCC)[CH2]CCC` [TBT, Tributyltin Chloride], in data set [1], the “IC10, range between individual ECFC clones” value is 0.2 to 0.5 µM; the “average IC10 (mean and standard deviation)” value worked out at 0.3 ± 0.11 µM. Also, in data set [1] (setting [5]), the IC50 lay within 1.2 to 2.3 µM.
Consider `[Cl-].[Cl-].[Zn+2]` [ZnCl2, Zinc Chloride], for which, in data set [1], the cytotoxicity result was “cytotoxic” and the effect on viability entry was “did not affect viability”.
